Experimental data: patent publication US11207337B2, “Co-therapy comprising canagliflozin and phentermine for the treatment of obesity and obesity related disorders” (Janssen Pharmaceutica NV, priority 2015, dated 2021)

Key:
C. elegans = conditions: BOHB treatment of the worm (C. elegans); Edwards et al. 2014; cited from earlier work
[1] = metformin on its own, in the diabetic; cited from earlier work
[2] = 26 week randomized, double-blind, placebo-controlled clinical trial: body weight; format: in vivo, human; conditions: for Absolute Body Weight Change from Baseline at Week 26, LS Mean / Body weight % Change from Baseline at Week 26, LS Mean: MMRM; for Body weight % Change from Baseline at Week 26, LS Mean: overweight or obese non-diabetic adults; for Absolute Body Weight Change from Baseline at Week 26, Diff. of LS Means Minus Placebo / Body weight % Change from Baseline at Week 26, Diff. of LS Means Minus Placebo: placebo-subtracted; for estimated contribution to the weight loss observed at Week 26: share of the weight loss in the co-therapy group
Method: (§1) The safety and efficacy of combination treatment with 300 mg canagliflozin and 15 mg phentermine was investigated in a 26 week, randomized, double-blind, placebo-controlled, parallel group, multi-center study. (Complete study protocol filed and available as STUDY 28431754-OBE2002 on www.clinicaltrials.gov).
(§2) The study began with a 4-week single blind placebo run-in period. […] All subjects were provided with diet and exercise counseling for weight loss (standardized non-pharmacological therapy) and were instructed to follow the diet and exercise program throughout the study.
(§3) The modified intent-to-treat (mITT) analysis set included all randomized subjects who had received at least one dose of study drug. The primary efficacy endpoint was percent change from baseline in body weight at Week 26. The secondary efficacy endpoints included (1) proportion of subjects with weight loss ≥5% at Week 26, (2) absolute change from baseline in SBP ([…]) at Week 26, and (3) absolute change from baseline in body weight at Week 26. The inclusion of canagliflozin 300 mg and phentermine 15 mg as separate treatment groups allowed for a descriptive estimate of relative contribution of the individual components to the observed weight loss in the co-therapy canagliflozin 300 mg/phentermine 15 mg group and provided efficacy and safety data on canagliflozin 300 mg in the non-diabetic, overweight/obese population. Safety analyses included treatment-emergent adverse events (referred to as adverse events in this document), laboratory tests (including chemistry and hematology), and vital signs (blood pressure and pulse rate).
The change from baseline in absolute body weight at Week 26 was analyzed with an MMRM similar to the primary efficacy endpoint.

[3] = 26 week placebo-controlled clinical trial: systolic and diastolic blood pressure; format: in vivo, human; conditions: Week 26; for Systolic Blood Pressure Change From Baseline, LS Mean: MMRM; for Diastolic Blood Pressure, Mean change / Diastolic Blood Pressure, Median change / Systolic Blood Pressure, Mean change / Systolic Blood Pressure, Median change: change from baseline, observed; for Systolic Blood Pressure Change From Baseline, Diff. of LS Means Minus Placebo: placebo-subtracted
Method: as §1, §2, §3
The reduction in diastolic blood pressure of −1.6 mm Hg (baseline 80 mm Hg) was not statistically significant.

[4] = 26 week placebo-controlled clinical trial: pulse rate (vital signs); format: in vivo, human
Method: as §1, §2, §3

[5] = Week 26, change from baseline, observed

Structure (SMILES)	increase in lifespan (C. elegans) [%]	average improvement in the HbA1c value [1]	Absolute Body Weight Change from Baseline at Week 26, LS Mean [2] [kg]	Body weight % Change from Baseline at Week 26, LS Mean [2] [%]	Absolute Body Weight Change from Baseline at Week 26, Diff. of LS Means Minus Placebo [2] [kg]	Body weight % Change from Baseline at Week 26, Diff. of LS Means Minus Placebo [2] [%]	estimated contribution to the weight loss observed at Week 26 [2] [%]	Systolic Blood Pressure Change From Baseline, LS Mean [3] [mmHg]	Diastolic Blood Pressure, Mean change [3] [mmHg]	Diastolic Blood Pressure, Median change [3] [mmHg]	Systolic Blood Pressure, Mean change [3] [mmHg]	Systolic Blood Pressure, Median change [3] [mmHg]	Systolic Blood Pressure Change From Baseline, Diff. of LS Means Minus Placebo [3] [mmHg]	pulse, LS Mean change from baseline (SE) ([4]; Week 26)	Pulse Rate, Mean change [4, 5] [BEATS/MIN]	Pulse Rate, Median change [4, 5] [BEATS/MIN]	Pulse Rate, Mean change ([4]; human, in vivo) [BEATS/MIN]	Pulse Rate, Median change ([4]; human, in vivo) [BEATS/MIN]	pulse, LS Mean change from baseline (SE) ([4]; human, in vivo)
CC(O)CC(=O)O (stereo not drawn) [BOHB, beta-hydroxybutyrate]	~20																		
CN(C)C(=N)N=C(N)N [metformin]		1.0-1.5%																	
CC(C)(N)Cc1ccccc1 [Phen 15 mg, 2-methyl-1-phenylpropan-2-amine]			-4.1	−4.1	-3.5	−3.5	50	−1.4	0.55	0.67	−1.13	−0.33	1.3	4.1 (1.0) bpm	5.02	4.67			
Cc1ccc([C@@H]2O[C@H](CO)[C@@H](O)[C@H](O)[C@H]2O)cc1Cc1ccc(-c2ccc(F)cc2)s1 [Cana 300 mg, (1S)-1,5-anhydro-1-[3-[[5-(4-fluorophenyl)-2-thienyl]methyl]-4-methylphenyl]-D-glucitol]			-1.9	−1.9	-1.3	−1.3	18	−3.1	−1.32	−1.17	−3.31	−1.67	−0.4				1.64	0.83	0.7 (1.0) bpm
